Test results from ChEMBL document CHEMBL5055644, “Cysteine derivatives as acetyl lysine mimics to inhibit zinc-dependent histone deacetylases for treating cancer” (Eur J Med Chem, 2021).
Activity calls are given as the source filed them. The calls are words filed in the database; no cut-off is given here.

How the values were obtained:
[1] = biological target: Protein deacetylase HDAC6 (Mus musculus) (UniProt Q9Z2V5); assay: In vivo inhibition of HDAC6 in BALB/c mouse xenografted with human A549 cells assessed as increase in alpha tubulin acetylation at 25 to 50 mg/kg, iv administered for 3 weeks by immunohistochemical analysis; type: functional, organism-based; details: dose 25-50 mg/kg
[2] = tested on: Mus musculus; assay: In vivo inhibition of HDAC in BALB/c mouse xenografted with human A549 cells assessed as increase in H3 histone at 25 to 50 mg/kg, iv administered for 3 weeks by immunohistochemical analysis; type: functional, organism-based; details: dose 25-50 mg/kg
[3] = biological target: T1, Protein deacetylase HDAC6 (Homo sapiens) (UniProt Q9UBN7); assay: Inhibition of HDAC6 in human A549 cells assessed as increase in alpha tubulin acetylation at 10 uM measured after 8 hrs by Western blot analysis; type: cell-based
T1 sequence (whole entry): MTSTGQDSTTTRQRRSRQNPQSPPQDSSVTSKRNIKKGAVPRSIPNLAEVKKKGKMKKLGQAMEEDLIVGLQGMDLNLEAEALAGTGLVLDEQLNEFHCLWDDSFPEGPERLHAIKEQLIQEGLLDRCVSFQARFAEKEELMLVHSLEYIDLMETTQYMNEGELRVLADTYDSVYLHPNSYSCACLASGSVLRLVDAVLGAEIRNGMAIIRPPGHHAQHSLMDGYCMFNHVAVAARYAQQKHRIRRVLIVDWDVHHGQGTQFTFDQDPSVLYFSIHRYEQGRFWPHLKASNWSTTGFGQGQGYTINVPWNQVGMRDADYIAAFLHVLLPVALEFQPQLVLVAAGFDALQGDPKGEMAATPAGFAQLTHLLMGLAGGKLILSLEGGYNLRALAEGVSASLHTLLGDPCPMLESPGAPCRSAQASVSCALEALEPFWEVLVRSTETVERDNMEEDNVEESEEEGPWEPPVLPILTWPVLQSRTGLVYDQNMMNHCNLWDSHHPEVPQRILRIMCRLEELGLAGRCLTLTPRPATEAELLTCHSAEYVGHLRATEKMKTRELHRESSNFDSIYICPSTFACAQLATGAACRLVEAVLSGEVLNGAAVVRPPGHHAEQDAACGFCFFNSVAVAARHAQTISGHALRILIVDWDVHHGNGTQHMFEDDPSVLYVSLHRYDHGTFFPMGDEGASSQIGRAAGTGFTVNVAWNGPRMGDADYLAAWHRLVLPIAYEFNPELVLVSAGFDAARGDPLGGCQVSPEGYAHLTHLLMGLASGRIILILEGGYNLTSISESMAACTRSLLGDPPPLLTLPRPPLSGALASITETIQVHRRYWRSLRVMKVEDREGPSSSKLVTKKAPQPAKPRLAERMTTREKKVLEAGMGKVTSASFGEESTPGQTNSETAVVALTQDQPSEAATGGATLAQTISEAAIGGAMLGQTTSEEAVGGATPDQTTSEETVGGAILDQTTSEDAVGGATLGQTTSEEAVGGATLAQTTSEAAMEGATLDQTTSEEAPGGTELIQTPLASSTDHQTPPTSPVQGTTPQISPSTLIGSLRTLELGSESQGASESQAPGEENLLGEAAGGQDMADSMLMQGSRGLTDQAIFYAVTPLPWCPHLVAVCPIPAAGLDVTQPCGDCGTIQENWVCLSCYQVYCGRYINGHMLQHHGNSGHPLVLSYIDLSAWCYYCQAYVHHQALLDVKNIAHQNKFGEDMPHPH

[4] = Acute toxicity in po dosed BALB/c mouse assessed as lethal dose; type: organism-based; details: in vivo
[5] = tested on: K562; assay: Induction of apoptosis in human K562 cells assessed as increased cleaved caspase 3 at 10 uM measured after 8 hrs by Western blot analysis; type: functional, cell-based
[6] = biological target: T2, Class 1 histone deacetylase (Homo sapiens) (UniProt Q13547+O15379+Q92769+Q9BY41); assay: Inhibition of class 1 HDAC in human A549 cells assessed as increase in histone H3/H4 acetylation measured after 24 hrs by Immunofluorescent assay; type: cell-based
[7] = tested on: K562; assay: Induction of apoptosis in human K562 cells assessed as increased cleaved caspase 9 at 10 uM measured after 8 hrs by Western blot analysis; type: functional, cell-based
[8] = tested on: A549; assay: Antitumor activity against human A549 cells xenografted in BALB/c mouse assessed as tumor growth inhibition at low dose when administered intratumorally for 21 days relative to control; type: functional; details: route it(Intratumoral); time 21 day
[9] = tested on: A549; assay: Upregulation of p21 in human A549 cells up to 10 uM measured after 8 hrs by Western blot analysis; type: functional, cell-based
[10] = tested on: A549; assay: Antitumour activity against human A549 cells xenografted in BALB/c mouse assessed as tumor growth inhibition at 50 mg/kg,iv administered for 3 weeks relative to control; type: functional; details: A549, 504 h, read-out: TGI
[11] = tested on: K562; assay: Induction of apoptosis in human K562 cells assessed as downregulation of Bcl-2 protein at 10 uM measured after 8 hrs by Western blot analysis; type: functional, cell-based
[12] = tested on: A549; assay: Induction of apoptosis in human A549 cells at 1 to 10 uM after 48 hrs by Annexin-V/propidium iodide staining based flow cytometric analysis; type: functional, cell-based; details: dose 1-10 µM
[13] = tested on: Mus musculus; assay: Toxicity in BALB/c mouse xenografted with human A549 cells assessed as effect on body weight at 0.75 to 1.5 mg, IT(Intratumoral) measured after 21 days; type: organism-based; details: in vivo, other, 504 h, dose 0.75-1.5 mg, time 21 day
[14] = tested on: Mus musculus; assay: Toxicity in BALB/c mouse xenografted with human A549 cells assessed as effect on body weight at 25 to 50 mg/kg, iv measured after 21 days; type: organism-based; details: in vivo, 504 h, dose 25-50 mg/kg, time 21 day
[15] = Acute toxicity in BALB/c mouse assessed as maximum tolerated dose; details: in vivo
[16] = tested on: A549; assay: Antitumour activity against human A549 cells xenografted in BALB/c mouse assessed as tumor growth inhibition at 25 mg/kg,iv administered for 3 weeks relative to control; type: functional; details: A549, 504 h, read-out: TGI
[17] = biological target: T2, Class 1 histone deacetylase (Homo sapiens); assay: Inhibition of class 1 HDAC in human A549 cells assessed as increase in histone H3/H4 acetylation at 10 uM measured after 8 hrs by Western blot analysis; type: cell-based

T2 sequence (O15379 whole entry, looked up): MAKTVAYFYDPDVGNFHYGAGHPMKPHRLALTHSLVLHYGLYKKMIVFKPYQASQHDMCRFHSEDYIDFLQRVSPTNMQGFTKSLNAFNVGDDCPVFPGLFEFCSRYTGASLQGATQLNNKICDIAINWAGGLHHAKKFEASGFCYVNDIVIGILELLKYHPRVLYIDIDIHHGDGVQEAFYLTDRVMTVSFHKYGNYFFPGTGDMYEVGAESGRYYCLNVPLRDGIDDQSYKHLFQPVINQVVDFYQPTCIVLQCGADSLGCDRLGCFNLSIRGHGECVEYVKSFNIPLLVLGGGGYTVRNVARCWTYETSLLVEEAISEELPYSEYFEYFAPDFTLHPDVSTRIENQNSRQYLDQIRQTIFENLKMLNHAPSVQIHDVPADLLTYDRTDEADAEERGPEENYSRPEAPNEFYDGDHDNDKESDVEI
T2 sequence (Q13547 whole entry, looked up): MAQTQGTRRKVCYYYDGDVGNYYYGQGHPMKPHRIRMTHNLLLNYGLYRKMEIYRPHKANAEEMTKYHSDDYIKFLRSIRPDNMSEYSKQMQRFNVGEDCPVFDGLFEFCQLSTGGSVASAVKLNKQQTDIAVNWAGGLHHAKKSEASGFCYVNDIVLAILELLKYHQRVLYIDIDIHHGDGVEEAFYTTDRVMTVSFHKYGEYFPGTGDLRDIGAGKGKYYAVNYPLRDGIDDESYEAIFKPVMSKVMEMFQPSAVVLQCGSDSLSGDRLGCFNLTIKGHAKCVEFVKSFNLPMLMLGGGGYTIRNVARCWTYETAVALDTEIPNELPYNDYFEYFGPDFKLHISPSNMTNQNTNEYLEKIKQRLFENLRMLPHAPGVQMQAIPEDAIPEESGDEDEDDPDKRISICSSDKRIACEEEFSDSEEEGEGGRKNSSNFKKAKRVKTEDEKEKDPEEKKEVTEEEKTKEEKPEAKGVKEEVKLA
T2 sequence (Q92769 whole entry, looked up): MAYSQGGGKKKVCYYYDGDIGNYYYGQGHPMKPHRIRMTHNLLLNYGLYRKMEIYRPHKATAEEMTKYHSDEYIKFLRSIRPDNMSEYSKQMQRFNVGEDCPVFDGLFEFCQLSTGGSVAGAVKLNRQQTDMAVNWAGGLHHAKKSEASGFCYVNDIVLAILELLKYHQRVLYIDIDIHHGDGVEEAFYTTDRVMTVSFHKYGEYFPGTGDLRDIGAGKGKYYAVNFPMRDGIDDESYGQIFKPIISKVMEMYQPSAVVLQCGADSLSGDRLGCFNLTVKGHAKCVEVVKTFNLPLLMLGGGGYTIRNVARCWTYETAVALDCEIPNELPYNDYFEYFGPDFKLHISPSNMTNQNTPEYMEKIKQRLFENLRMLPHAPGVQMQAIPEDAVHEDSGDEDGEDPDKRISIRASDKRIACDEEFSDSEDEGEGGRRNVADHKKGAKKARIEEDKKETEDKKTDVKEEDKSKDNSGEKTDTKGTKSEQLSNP
T2 sequence (Q9BY41 whole entry, looked up): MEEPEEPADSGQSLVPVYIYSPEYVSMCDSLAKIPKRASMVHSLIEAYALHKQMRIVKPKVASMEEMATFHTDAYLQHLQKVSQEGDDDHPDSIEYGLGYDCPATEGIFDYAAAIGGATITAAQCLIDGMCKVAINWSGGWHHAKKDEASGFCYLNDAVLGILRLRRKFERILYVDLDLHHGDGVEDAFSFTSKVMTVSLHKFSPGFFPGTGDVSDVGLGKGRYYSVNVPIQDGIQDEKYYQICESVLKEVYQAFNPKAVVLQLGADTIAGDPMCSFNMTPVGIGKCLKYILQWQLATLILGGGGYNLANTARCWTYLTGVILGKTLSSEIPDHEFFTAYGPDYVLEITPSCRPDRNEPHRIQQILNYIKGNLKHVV
Sequence of Protein deacetylase HDAC6 (Mus musculus) (Q9Z2V5 whole entry): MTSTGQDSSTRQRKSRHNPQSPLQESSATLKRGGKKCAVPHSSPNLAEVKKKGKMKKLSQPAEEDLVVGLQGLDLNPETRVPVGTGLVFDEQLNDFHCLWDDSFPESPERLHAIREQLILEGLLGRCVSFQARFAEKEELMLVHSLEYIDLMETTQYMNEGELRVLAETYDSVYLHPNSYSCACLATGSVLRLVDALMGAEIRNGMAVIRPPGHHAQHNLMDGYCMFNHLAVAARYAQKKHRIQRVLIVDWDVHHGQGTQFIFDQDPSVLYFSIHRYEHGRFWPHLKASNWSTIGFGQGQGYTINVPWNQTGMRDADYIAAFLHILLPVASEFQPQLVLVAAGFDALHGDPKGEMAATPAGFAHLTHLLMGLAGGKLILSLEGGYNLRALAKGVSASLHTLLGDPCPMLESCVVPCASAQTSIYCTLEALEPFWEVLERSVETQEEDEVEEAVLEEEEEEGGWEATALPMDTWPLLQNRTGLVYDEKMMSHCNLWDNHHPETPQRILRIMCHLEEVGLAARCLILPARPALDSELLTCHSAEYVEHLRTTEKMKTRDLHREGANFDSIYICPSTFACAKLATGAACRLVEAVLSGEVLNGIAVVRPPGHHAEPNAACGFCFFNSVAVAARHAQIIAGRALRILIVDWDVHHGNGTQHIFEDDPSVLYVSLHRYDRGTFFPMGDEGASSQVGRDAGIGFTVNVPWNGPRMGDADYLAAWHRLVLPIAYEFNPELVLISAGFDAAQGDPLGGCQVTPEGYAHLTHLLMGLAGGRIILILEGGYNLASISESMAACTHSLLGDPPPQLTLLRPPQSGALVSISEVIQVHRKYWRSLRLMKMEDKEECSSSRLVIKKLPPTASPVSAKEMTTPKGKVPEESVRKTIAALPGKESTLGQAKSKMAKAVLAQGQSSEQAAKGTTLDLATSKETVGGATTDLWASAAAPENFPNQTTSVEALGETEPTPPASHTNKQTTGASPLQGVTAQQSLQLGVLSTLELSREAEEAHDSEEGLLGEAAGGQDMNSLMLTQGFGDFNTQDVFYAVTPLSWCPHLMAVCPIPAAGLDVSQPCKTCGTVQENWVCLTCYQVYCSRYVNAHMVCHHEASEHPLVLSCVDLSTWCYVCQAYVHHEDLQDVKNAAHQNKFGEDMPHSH

For O=C(CCCSC[C@H](NC(=O)c1ccccc1)C(=O)Nc1ccccc1)NO, the inhibition [1] was “Active”, the inhibition [2] was “Active” and the inhibition [3] was “Active”. The LD50 [4] was greater than 2000 mg/kg, the Activity [5] was “Active” and the inhibition [6] was “Dose-dependent effect”. For the same compound, the Activity [7] was “Active”, the TGI [8] was 44% and the Activity [9] was “Active”. For the same compound, the inhibition in vivo at 50 mg/kg [10] was 75%, the Activity [11] was “Active” and the Activity [12] was “Active”. For the same compound, the Activity [13] was “Non-Toxic”, the Activity [14] was “Non-Toxic” and the MTD [15] was 100 mg/kg. For the same compound, the inhibition in vivo at 25 mg/kg [16] was 62% and the inhibition [17] was “Active”.
